Experimental data reported in paper PMC6037162 (Journal of the American Chemical Society, 2018).
Where a chain is given by its changes, count along the chain named. Several values for one entry are separate records, joined by “and”; a condition that tells them apart may be missing. Identical values can stand only once.

Legend:
[1] = Acidity constants of ligands in water
wildtype TIM [2] = conditions: compared with D-GAP; ref [30]; cited from earlier work
wildtype cTIM = wildtype cTIM (Gallus gallus, UniProt P00940); assay: TIM-catalyzed isomerization of GAP; assay type: biochemical, chicken; conditions: deprotonation of EH·I^3–; estimated from (Ki)E·KEHI and (Ki)E
Sequence of wildtype cTIM (P00940 whole entry): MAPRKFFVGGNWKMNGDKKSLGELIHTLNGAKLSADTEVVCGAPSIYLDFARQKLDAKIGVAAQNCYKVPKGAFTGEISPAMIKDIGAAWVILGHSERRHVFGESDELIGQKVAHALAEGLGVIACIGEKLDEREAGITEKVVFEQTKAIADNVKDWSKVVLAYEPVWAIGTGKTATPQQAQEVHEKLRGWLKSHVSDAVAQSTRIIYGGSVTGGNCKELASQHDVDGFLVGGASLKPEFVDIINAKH

[3] = target: L7R cTIM (loop 7 replacement) (Gallus gallus, UniProt P00940, G210A/S211G/Y208T); assay: TIM-catalyzed isomerization of GAP; assay type: biochemical, chicken
Sequence of L7R cTIM (loop 7 replacement) (P00940 whole entry Y208T/G210A/S211G): as the sequence (P00940 whole entry) above, with Y208T, G210A, S211G counted along it

wildtype TbbTIM [4] = target: T1, wildtype TbbTIM (Trypanosoma brucei brucei, UniProt P04789); assay type: biochemical; conditions: deprotonation of EH·I^3–; estimated from (Ki)E·KEHI and (Ki)E
P166A TbbTIM = P166A TbbTIM (Trypanosoma brucei brucei, UniProt P04789, P168A); assay: TIM-catalyzed isomerization of GAP; assay type: biochemical; conditions: difference to wildtype enzyme
I170A TbbTIM [5] = target: T2, I170A TbbTIM (Trypanosoma brucei brucei, UniProt P04789, I172A); assay: TIM-catalyzed isomerization of GAP; assay type: biochemical
Y208F yTIM = target: T3, Y208F yTIM (Saccharomyces cerevisiae, UniProt P00942, Y208F); assay: TIM-catalyzed isomerization of GAP; assay type: biochemical, yeast
T3 sequence (P00942 1-248 Y208F): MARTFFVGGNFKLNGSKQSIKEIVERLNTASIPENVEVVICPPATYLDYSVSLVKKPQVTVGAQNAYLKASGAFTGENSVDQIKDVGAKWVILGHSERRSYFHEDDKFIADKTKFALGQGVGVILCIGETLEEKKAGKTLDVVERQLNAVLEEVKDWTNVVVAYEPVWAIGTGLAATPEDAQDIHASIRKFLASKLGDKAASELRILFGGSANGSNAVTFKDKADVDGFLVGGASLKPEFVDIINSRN

S211A yTIM = target: T4, S211A yTIM (Saccharomyces cerevisiae, UniProt P00942, S211A); assay: TIM-catalyzed isomerization of GAP; assay type: biochemical, yeast
T4 sequence (P00942 1-248 S211A): T3 sequence (P00942 1-248 Y208F) with F208Y, S211A

wildtype TIM [6] = assay: Binding of PGA trianion to wildtype TIMs, summary of Table 1; assay type: biochemical
mutant TIMs = assay: Binding of PGA trianion to mutant TIMs, summary of Table 1; assay type: biochemical; conditions: read-out: (Ki)E; range over mutant TIMs
[7] = Storage stability of PGA stock solutions; assay type: physicochemical; conditions: solutions at pH 7.5 stored at −20 °C
wildtype TbbTIM [8] = target: T1, wildtype TbbTIM; conditions: pH profile linear through pH 9.7; ref [14]; cited from earlier work
I170A TbbTIM [9] = target: T2, I170A TbbTIM; conditions: deprotonation of EH·I^3–; ref [14]; cited from earlier work
[10] = ref [20]; cited from earlier work
[11] = deprotonation of EH·I^3–, fit to eq 7
[12] = (Ki)E, release of PGA trianion from E^–·I^3–, fit to eq 7

## O=C[C@H](O)COP(=O)(O)O [GAP, D-Glyceraldehyde 3-phosphate]
[1]
  pKa: 6 ± 0.1

## O=C[C@@H](O)COP(=O)(O)O [L-GAP]
Wildtype TIM [2]
  binding to TIM: binds much more weakly to TIM than D-GAP

## O=C(O)COP(=O)(O)O [PGA, 2-Phosphoglycolic acid]
Wildtype cTIM
  KEHI: 2.9 × 10^–11 M
[3]
  Ki: 2.6 mM
[3]; [11]
  KEHI: 1.8 × 10^–7 M
[3]; difference to wildtype enzyme
  Δ(pK)EHI: 3.8
Wildtype TbbTIM [4]
  KEHI: 1.2 × 10^–11 M
P166A TbbTIM
  Δ(pK)EHI: 0.7
I170A TbbTIM [5]
  Ki: 7.94 mM
I170A TbbTIM [5]; difference to wildtype enzyme
  Δ(pK)EHI: 2.3
Y208F yTIM; [12]
  Ki: 16 mM
Y208F yTIM; [11]
  KEHI: 4.9 × 10^–7 M
Y208F yTIM; difference to wildtype enzyme
  Δ(pK)EHI: 4.1
Y208F yTIM; log (Ki)E
  Ki: 15.8 mM
S211A yTIM; [12]
  Ki: 20 mM and 24 mM
S211A yTIM; difference to wildtype enzyme
  Δ(pK)EHI: 2.2
Wildtype TIM [6]; from (Ki)E
  binding energy for formation of E^–·I^3–: 3 kcal/mol
Wildtype TIM [6]; from (Ki)EH
  binding energy of I^3– to EH: 11.1 to 11.8 kcal/mol
Mutant TIMs
  Ki: 3 to 30 mM
[7]
  stability toward hydrolysis of the phosphoryl group: at least 6 months
Wildtype TbbTIM [8]
  pKEHI for release of a proton from the EH·I^3– complex: > 10
I170A TbbTIM [9]
  KEHI: 1.9 × 10^–8 M
[10]
  pKa for loss of a proton from PGA dianion to form PGA trianion: 6.3
